The source of these data is US12723063B2, “GIPR-agonist compounds” (Eli Lilly and Company, priority 2019, dated 2026).

For one data set, the target named is T1, human GLP-1R (Homo sapiens, UniProt P43220).
T1 construct: expressed in transfected cells; crude membranes
Put plainly: [125I]-GLP-1 binding, SPA with WGA beads, 0.1% bacitracin. Conditions: geometric mean, read-out: hGLP1R Ki. A digest of the protocol: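 Binding buffer was 25 mM HEPES pH 7.4 with 2.5 mM CaCl2, 1 mM MgCl2, 0.1% (w/v) bacitracin, 0.003% Tween-20 and EDTA-free protease inhibitors. Four-parameter regression gave IC50, converted to Ki (geometric mean, SEM, n independent days).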

Data set [1] can be described thus: Pharmacokinetics in male cynomolgus monkeys, single subcutaneous administration. The data set is classed as in vivo, cynomolgus monkey. Conditions: 50 nmol/kg single SC, mean n = 2; for CL/F / Tmax / half-life: cynomolgus monkey, plasma. On the procedure: The pharmacokinetics of select Examples are evaluated following a single subcutaneous administration of 50 nmol/kg to male cynomolgus monkeys. Blood samples are collected over 504 hours and resulting individual plasma concentrations are used to calculate pharmacokinetic parameters. Peptide plasma (K3 EDTA) concentrations are determined using a qualified LC/MS method that measured the intact mass of the compound. Each peptide and an analog as an internal standard are extracted from 100% cynomolgus monkey plasma using a protein precipitation method. Instruments are combined for LC/MS detection.

A short description of data set [2]: Pharmacokinetics in male Sprague Dawley rats, single subcutaneous administration. The note with it: 100 nmol/kg single SC, mean n = 3 (example 3 n = 1); for CL/F / Tmax / half-life: rat, plasma. The data set is classed as in vivo, Sprague Dawley rat. On the procedure:
The pharmacokinetics of select Examples are evaluated following a single subcutaneous (SC) administration of 100 nmol/kg to male Sprague Dawley rats. Blood samples are collected over 168 hours following SC administration. Pharmacokinetic parameters are calculated using individual plasma concentrations. A qualified LC/MS method that measures the intact mass of the Example is used to determine plasma (K3 EDTA) concentrations. Each peptide and an analog as an internal standard are extracted from 100% rat plasma using a protein precipitation method. Instruments are combined for LC/MS detection. Mean pharmacokinetic parameters for the Examples are shown in […]

For data set [3], the system named is CD4+ T cells (CD8+ T cell-depleted PBMCs). Kind of data set: CD4+ T cell proliferation assay (immunogenicity assessment). The data set is classed as cell-based, human. Conditions: 0.33 μM, 7 days, 10 healthy donors; positive response CDI>2.5. On the procedure: Protein therapeutics that induce less than 30% positive response in the CD4+ T cell proliferation assay are associated with a low risk of immunogenicity. Briefly, to assess the propensity for a clinical immunogenic response to the compounds of Examples 1, 2, 3, 5, and 6, CD8+ T cell-depleted peripheral blood mononuclear cells (PBMCs) are prepared and labeled with carboxyfluorescein diacetate succinimidyl ester (CFSE; Invitrogen) from a cohort of 10 healthy donors with diverse human leukocyte antigen (HLA) class II haplotypes. Each donor is tested in triplicate with 2.0 mL media control, keyhole limpet hemocyanin (KLH: 0.33 μM), and the compounds of Examples 1, 2, 3, 5, and 6 (0.33 μM). Cultures are incubated for 7 days at 37° C. with 5% CO2. On day 7, samples are analyzed by flow cytometry using a BD LSR II Fortessa (Becton Dickinson; Franklin Lakes, NJ), equipped with a high throughput sampler (HTS). Data is analyzed using FlowJo® Software (FlowJo, LLC/TreeStar; Ashland, OR).
• Cell Division Index (“CDI”): proportion of divided CD4+ T cells to the total number of CD4+ T cells in stimulated versus unstimulated samples.

*1 amine or outer side, *2 acyl side, *3 side chain or, on linkers, in order; H or OH if unused. Where a SMILES comes first, the peptide text is derived from it. Side-chain parts run from the residue outwards. [ ]: non-standard residue; d: D form. The star is where a group is joined. C20 diacid = O=C(O)CCCCCCCCCCCCCCCCCCC(=O)*; γGlu = O=C(O)[C@H](CCC(=O)[*:2])N[*:1]; 4Pal = N[C@@H](Cc1ccncc1)C(=O)O; αMeL = CC(C)C[C@](C)(N)C(=O)O; Orn = NCCC[C@H](N)C(=O)O; AEEA = NCCOCCOCC(=O)O; Aib = CC(C)(N)C(=O)O Where only a bound is given, the exact number is not on record here.

T1 sequence (P43220 24-463): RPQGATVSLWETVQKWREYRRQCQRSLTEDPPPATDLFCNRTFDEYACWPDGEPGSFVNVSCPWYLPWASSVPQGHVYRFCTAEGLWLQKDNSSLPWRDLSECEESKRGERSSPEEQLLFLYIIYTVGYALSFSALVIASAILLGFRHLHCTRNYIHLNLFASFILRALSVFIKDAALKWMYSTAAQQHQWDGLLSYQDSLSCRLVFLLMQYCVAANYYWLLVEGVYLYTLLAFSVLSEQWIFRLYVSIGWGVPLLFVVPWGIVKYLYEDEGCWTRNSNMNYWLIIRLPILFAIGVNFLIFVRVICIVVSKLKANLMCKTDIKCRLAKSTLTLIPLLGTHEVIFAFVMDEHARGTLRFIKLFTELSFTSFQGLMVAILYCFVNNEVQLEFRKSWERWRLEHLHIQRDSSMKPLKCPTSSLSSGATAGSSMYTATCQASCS

Take `CC[C@H](C)[C@H](NC(=O)[C@H](CO)NC(=O)[C@H](Cc1ccc(O)cc1)NC(=O)[C@H](CC(=O)O)NC(=O)[C@H](CO)NC(=O)[C@@H](NC(=O)[C@H](Cc1ccccc1)NC(=O)[C@@H](NC(=O)CNC(=O)[C@H](CCC(=O)O)NC(=O)[C@@H](C)NC(=O)[C@@H](N)Cc1ccc(O)cc1)[C@@H](C)O)[C@@H](C)CC)C(=O)N[C@@H](CC(C)C)C(=O)N[C@@H](CC(C)C)C(=O)N[C@@H](CC(=O)O)C(=O)N[C@@H](CCCCN)C(=O)N[C@@H](CCCCNC(=O)COCCOCCNC(=O)COCCOCCNC(=O)CC[C@H](NC(=O)CCCCCCCCCCCCCCCCCCC(=O)O)C(=O)O)C(=O)N[C@@H](C)C(=O)N[C@@H](CCC(N)=O)C(=O)NC(C)(C)C(=O)N[C@@H](CC(=O)O)C(=O)N[C@@H](Cc1ccccc1)C(=O)N[C@H](C(=O)N[C@@H](CC(N)=O)C(=O)N[C@@H](Cc1c[nH]c2ccccc12)C(=O)N[C@@H](CC(C)C)C(=O)N[C@@H](CC(C)C)C(=O)N[C@@H](C)C(=O)N[C@@H](CCC(N)=O)C(=O)NCC(=O)N1CCC[C@H]1C(=O)N[C@@H](CO)C(=O)N[C@@H](CO)C(=O)NCC(=O)N[C@@H](C)C(=O)N1CCC[C@H]1C(=O)N1CCC[C@H]1C(=O)N1CCC[C@H]1C(=O)N[C@@H](CO)C(N)=O)C(C)C` [Example 1]: at human GLP-1R, the Ki is 57.8 nM. Moreover, in data set [1], the AUCInf/Dose was 786 hr*kg*nmol/L/nmol, the Cmax/Dose is on record as 7.20 kg*nmol/L/nmol, the CL/F is 1.27 mL/h/kg and the Tmax came to 24 h. In addition, in data set [1], the half-life is 71.1 h. Further, in data set [2], the AUCInf/Dose was 280 hr*kg*nmol/L/nmol, the Cmax/Dose turned out to be 3.62 kg*nmol/L/nmol, the CL/F was 3.57 mL/h/kg and the Tmax was 24 h. The half-life in data set [2] is 37.4 h. Also, the “% Donor Response (n = 10)” value in data set [3] is on record as 0%.

Take `CC[C@H](C)[C@H](NC(=O)[C@H](CO)NC(=O)[C@H](Cc1ccc(O)cc1)NC(=O)[C@H](CC(=O)O)NC(=O)[C@H](CO)NC(=O)[C@@H](NC(=O)[C@H](Cc1ccccc1)NC(=O)[C@@H](NC(=O)CNC(=O)[C@H](CCC(=O)O)NC(=O)[C@@H](C)NC(=O)[C@@H](N)Cc1ccc(O)cc1)[C@@H](C)O)[C@@H](C)CC)C(=O)N[C@@H](CC(C)C)C(=O)N[C@@H](CC(C)C)C(=O)N[C@@H](CC(=O)O)C(=O)N[C@@H](CCCCN)C(=O)N[C@@H](CCCCNC(=O)COCCOCCNC(=O)COCCOCCNC(=O)CC[C@H](NC(=O)CCCCCCCCCCCCCCCCC(=O)O)C(=O)O)C(=O)N[C@@H](C)C(=O)N[C@@H](CCC(N)=O)C(=O)NC(C)(C)C(=O)N[C@@H](CC(=O)O)C(=O)N[C@@H](Cc1ccccc1)C(=O)N[C@H](C(=O)N[C@@H](CC(N)=O)C(=O)N[C@@H](Cc1c[nH]c2ccccc12)C(=O)N[C@@H](CC(C)C)C(=O)N[C@@H](CC(C)C)C(=O)N[C@@H](C)C(=O)N[C@@H](CCC(N)=O)C(=O)NCC(=O)N1CCC[C@H]1C(=O)N[C@@H](CO)C(=O)N[C@@H](CO)C(=O)NCC(=O)N[C@@H](C)C(=O)N1CCC[C@H]1C(=O)N1CCC[C@H]1C(=O)N1CCC[C@H]1C(=O)N[C@@H](CO)C(N)=O)C(C)C` [Example 2]: the Ki on human GLP-1R turned out to be 77.9 nM. Also, in data set [1], the AUCInf/Dose is given as 624 hr*kg*nmol/L/nmol, the Cmax/Dose is 6.92 kg*nmol/L/nmol, the CL/F was 1.61 mL/h/kg and the Tmax is 6 h. In data set [1], this compound had a half-life of 51.8 h. Further, in data set [2], the AUCInf/Dose is on record as 304 hr*kg*nmol/L/nmol, the Cmax/Dose is on record as 5.47 kg*nmol/L/nmol, the CL/F was 3.3 mL/h/kg and the Tmax was 12 h. In data set [2], this compound gave a half-life of 26.9 h. In data set [3], the “% Donor Response (n = 10)” value came to 10%.

For `CC[C@H](C)[C@H](NC(=O)[C@H](Cc1ccccc1)NC(=O)[C@@H](NC(=O)CNC(=O)[C@H](CCC(=O)O)NC(=O)C(C)(C)NC(=O)[C@@H](N)Cc1ccc(O)cc1)[C@@H](C)O)C(=O)N[C@@H](CO)C(=O)N[C@@H](CC(=O)O)C(=O)N[C@@H](Cc1ccc(O)cc1)C(=O)N[C@@H](CO)C(=O)N[C@H](C(=O)N[C@@](C)(CC(C)C)C(=O)N[C@@H](CC(C)C)C(=O)N[C@@H](CC(=O)O)C(=O)N[C@@H](CCCN)C(=O)N[C@@H](CCCCNC(=O)COCCOCCNC(=O)COCCOCCNC(=O)CC[C@H](NC(=O)CCCCCCCCCCCCCCCCCCC(=O)O)C(=O)O)C(=O)N[C@@H](Cc1c[nH]cn1)C(=O)N[C@@H](CCC(N)=O)C(=O)NC(C)(C)C(=O)N[C@@H](CC(=O)O)C(=O)N[C@@H](Cc1ccccc1)C(=O)N[C@H](C(=O)N[C@@H](CCC(=O)O)C(=O)N[C@@H](Cc1ccncc1)C(=O)N[C@@H](CC(C)C)C(=O)N[C@@H](CC(C)C)C(=O)N[C@@H](CCC(=O)O)C(=O)N[C@@H](C)C(=O)NCC(=O)N1CCC[C@H]1C(=O)N[C@@H](CO)C(=O)N[C@@H](CO)C(=O)NCC(=O)N[C@@H](C)C(=O)N1CCC[C@H]1C(=O)N1CCC[C@H]1C(=O)N1CCC[C@H]1C(=O)N[C@@H](CO)C(N)=O)C(C)C)[C@@H](C)CC` [Example 4], at human GLP-1R, the Ki came out at 423 nM. Also, in data set [1], the AUCInf/Dose is on record as 1387 hr*kg*nmol/L/nmol, the Cmax/Dose came to 8.71 kg*nmol/L/nmol, the CL/F is 0.72 mL/h/kg and the Tmax is 6 h. Besides, the half-life in data set [1] is 124 h.

As for `CC[C@H](C)[C@H](NC(=O)[C@H](CCCN)NC(=O)[C@H](CC(=O)O)NC(=O)[C@H](CC(C)C)NC(=O)[C@](C)(CC(C)C)NC(=O)[C@@H](NC(=O)[C@H](CO)NC(=O)[C@H](Cc1ccc(O)cc1)NC(=O)[C@H](CC(=O)O)NC(=O)[C@H](CO)NC(=O)[C@@H](NC(=O)[C@H](Cc1ccccc1)NC(=O)[C@@H](NC(=O)CNC(=O)[C@H](CCC(=O)O)NC(=O)C(C)(C)NC(=O)[C@@H](N)Cc1ccc(O)cc1)[C@@H](C)O)[C@@H](C)CC)[C@@H](C)CC)C(=O)N[C@@H](Cc1c[nH]cn1)C(=O)N[C@@H](CCC(N)=O)C(=O)NC(C)(C)C(=O)N[C@@H](CCC(=O)O)C(=O)N[C@@H](Cc1ccccc1)C(=O)N[C@H](C(=O)N[C@H](CCC(=O)O)C(=O)N[C@@H](Cc1ccc(O)cc1)C(=O)N[C@@H](CCCCNC(=O)COCCOCCNC(=O)COCCOCCNC(=O)CC[C@H](NC(=O)CCCCCCCCCCCCCCCCC(=O)O)C(=O)O)C(=O)N[C@@H](CC(C)C)C(=O)N[C@@H](CCC(=O)O)C(=O)NCC(=O)NCC(=O)N1CCC[C@H]1C(=O)N[C@@H](CO)C(=O)N[C@@H](CO)C(=O)NCC(=O)N[C@@H](C)C(=O)N1CCC[C@H]1C(=O)N1CCC[C@H]1C(=O)N1CCC[C@H]1C(=O)N[C@@H](CO)C(N)=O)C(C)C` [Example 7], the Ki on human GLP-1R was over 913 nM. In data set [1], the AUCInf/Dose amounted to 1603 hr*kg*nmol/L/nmol, the Cmax/Dose is 10.1 kg*nmol/L/nmol, the CL/F was 0.63 mL/h/kg and the Tmax is 9 h. This compound had a half-life in data set [1] of 109 h.

Consider `CC[C@H](C)[C@H](NC(=O)[C@H](CCCN)NC(=O)[C@H](CC(=O)O)NC(=O)[C@H](CC(C)C)NC(=O)[C@](C)(CC(C)C)NC(=O)[C@@H](NC(=O)[C@H](CO)NC(=O)[C@H](Cc1ccc(O)cc1)NC(=O)[C@H](CC(=O)O)NC(=O)[C@H](CO)NC(=O)[C@@H](NC(=O)[C@H](Cc1ccccc1)NC(=O)[C@@H](NC(=O)CNC(=O)[C@H](CCC(=O)O)NC(=O)C(C)(C)NC(=O)[C@@H](N)Cc1ccc(O)cc1)[C@@H](C)O)[C@@H](C)CC)[C@@H](C)CC)C(=O)N[C@@H](Cc1c[nH]cn1)C(=O)N[C@@H](CCC(N)=O)C(=O)NC(C)(C)C(=O)N[C@@H](CCC(=O)O)C(=O)N[C@@H](Cc1ccccc1)C(=O)N[C@H](C(=O)N[C@@H](CCC(=O)O)C(=O)N[C@@H](Cc1ccncc1)C(=O)N[C@@H](CCCCNC(=O)COCCOCCNC(=O)COCCOCCNC(=O)CC[C@H](NC(=O)CCCCCCCCCCCCCCCCCCC(=O)O)C(=O)O)C(=O)N[C@@H](CC(C)C)C(=O)N[C@@H](CCC(=O)O)C(=O)N[C@@H](C)C(=O)NCC(=O)N1CCC[C@H]1C(=O)N[C@@H](CO)C(=O)N[C@@H](CO)C(=O)NCC(=O)N[C@@H](C)C(=O)N1CCC[C@H]1C(=O)N1CCC[C@H]1C(=O)N1CCC[C@H]1C(=O)N[C@@H](CO)C(N)=O)C(C)C` [Example 122] (H-Y[Aib]EGTFISDYSI[αMeL]LD[Orn]IHQ[Aib]EFVE[4Pal]K([AEEA-AEEA-γGlu-C20 diacid])LEAGPSSGAPPPS-NH2), for which the Ki on human GLP-1R is over 913 nM.

Usually Ki stands for the dissociation constant of the complex between target and ligand, obtained from inhibition or displacement. By CL/F is commonly meant the apparent clearance, not corrected for the fraction that reaches the circulation. For orientation: Tmax means the time from dosing to the highest level. Usually half-life stands for the time needed for the level to fall by half in the phase considered. Higher therefore signals slow loss.
